Our source for the melting point values is a melting point compilation (Tetko et al.; mined from patent text by program, amines drawn as free bases though some values may be those of a salt).

As for `CCOC(=O)NC(=O)C1c2ccccc2Sc2ccccc21`, the melting point lay within 179 to 182 °C.

In the case of `COc1cc(NC2CCN(S(=O)(=O)c3ccccc3)CC2)ccc1C(N)=O`, the melting point was 166 to 168 °C.

The compound `CCCOCCN(CC)c1ccc(-c2ccc3c(c2)C=C(C(=O)Nc2ccc(CN(C)C4CCOCC4)cc2)CCS3(=O)=O)cc1` came in with a melting point of 172 to 175 °C.

For `CN1C(=O)C(C)(C)Oc2c(C(=O)O)cc(Cl)cc21`, the melting point lay within 235 to 236 °C.

For the compound `CCOC(=O)c1[nH]c2ccc(C)cc2c1C`, the melting point is 118 °C.

In turn, `COc1ccc(CNc2nc(OCc3ccccn3)ncc2C(N)=O)cc1Cl` returned a melting point of 208 to 209 °C.

Turning to `CCCc1nc2c(N)nc3ccccc3c2n1CC1(O)CCN(C)CC1`, the melting point was 241 to 242 °C.

`N#Cc1cnn2c(-c3cccc(Cl)c3)ccnc12` had a melting point of 238 to 240 °C.

The compound `O=C(CCCCc1ccccc1)Nc1ccc(C(=O)O)cc1` displayed a melting point of 227 to 230 °C.

Compound `CCO/C(=N/OC(C)=O)C1Cc2cc(C(=O)CC)c(O)c(Cl)c2O1` (stereo not drawn) had a melting point of 140 to 142 °C.

Consider `CN(c1nc(Nc2ccc(O)cc2)nc(NC2CCCCCC2)n1)C1CCNCC1`, for which the melting point came to 130 °C.

`COc1cc(OC)nc(NC(=O)NS(=O)(=O)c2ccccc2C(O)c2cccs2)n1` (stereo not drawn) displayed a melting point of 152 to 154 °C.

For the compound `Cc1nc(N2CCc3ccccc3CC2)c(C#N)c(=O)n1N(C)C(=O)OC(C)(C)C`, the melting point lay in the range of 164 to 166 °C.

Turning to `Cc1cc(C2(C(F)(F)F)CC(c3ccc(S(C)=O)cc3)=NO2)ccc1NC(=O)OC(C)(C)C` (stereo not drawn), the melting point lay within 76.5 to 88.5 °C.

In turn, `CC(=O)C1CCC2C3CCC4CC(O)C(N5CCOC(Cc6ccccc6)C5)CC4(C)C3C(=O)CC12C` (stereo not drawn) showed a melting point of 160 to 162 °C.

Regarding `CSc1ccc(C(N)=O)c([N+](=O)[O-])c1`, the melting point lay within 176 to 178 °C.

For `CCCOc1ccccc1Nc1ncc(C(=O)O)c(=O)[nH]1`, the melting point was 202 to 204 °C.

On to `COC(=O)/C=C/c1cccc(OCCCCCOC(C)=O)c1`, for which the melting point was 65 to 67 °C.

For the compound `O=C1c2ccccc2CCc2ccc(Cl)cc21`, the melting point is 64 to 65 °C.

On to `[N-]=[N+]=CC(=O)[C@H](O)[C@@H](O)[C@@H](O)CO`, for which the melting point is 93 to 94 °C.

For `O=C(O)c1ccc(N2CCN(c3ccncc3)CC2)cc1`, the melting point was > 300 °C.

As to `CCCc1c(OCCCOc2ccc(-c3cscn3)c(OC)c2CCC)ccc2c1OC(CCC(=O)O)CC2` (stereo not drawn), the melting point is 110 to 113 °C.

Consider `N#CC1(Cc2ccccc2)CCN(Cc2ccccc2)CC1`, for which the melting point stood at 92 °C.

`COc1ccc(-c2csc(NC(=O)C(=O)OCC(C)c3ccccc3)n2)cc1` (stereo not drawn) displayed a melting point of 150 to 152 °C.

Compound `CN1CCN(C(=O)Nc2ccccc2C=Cc2cc(C(C)(C)C)c(O)c(C(C)(C)C)c2)CC1` gave a melting point of 192 to 194 °C.

In turn, `CCOC1(OCC)CCc2c(ccc3c(=O)c4cc(C(=O)O)ccc4oc23)O1` gave a melting point of 191 to 193 °C.

With `C=C(C)Cn1c(N)cc(=O)[nH]c1=O`, the melting point fell in the range of 267 to 269 °C.

Take `O=C(CCCc1cccs1)N[C@H](Cc1ccc(C(F)(F)F)cc1)[C@@H](O)c1cccc2ccccc12` (racemic): the melting point fell in the range of 139 to 140 °C.

Compound `COc1ccc(CN2C(=O)C(C)(c3cc(N(C)C(=O)C4CCCN4C(C)=O)ccc3Cl)c3cc(Cl)ccc32)c(OC)c1` (stereo not drawn) had a melting point of 74 °C.

Compound `COc1ccc(S(=O)(=O)N2c3cc(F)ccc3-c3ccc(F)cc3C2C)c(OC)c1` (stereo not drawn) came in with a melting point of 112 to 115 °C.

`COc1ccc(/C(=C\C=C\C(=O)NCCCCc2cccnc2)c2ccccc2OC)cc1` showed a melting point of 164 to 165 °C.

The compound `COCc1cc(C(O)CNCCCCCCOCCc2ccc(OC)cc2)ccc1O` (stereo not drawn) registered a melting point of 97.5 to 98.5 °C.

The compound `O=C(CCl)NC(NC(=O)c1ccccc1)C(Cl)(Cl)Cl` (stereo not drawn) registered a melting point of 211 to 213 °C.

The compound `CC(=O)n1cc(Cl)c(-c2ccccc2Cl)c1` gave a melting point of 82 to 84 °C.

Turning to `CCOC(=O)c1cnc2c(NC(=O)c3c(Cl)cccc3Cl)cccc2c1CSc1ncc[nH]1`, the melting point was 120 to 123 °C.

With `CCC(C)n1c(=O)nc(SC)[nH]c1=O` (stereo not drawn), the melting point was in the range of 134 to 136 °C.

With `CC(C)COC[C@H](CC(C)C)NC(=O)[C@H]1O[C@@H]1C(=O)O`, the melting point turned out to be 63 °C.

Regarding `COc1ccccc1N1CCN(CCNc2ccccc2C(C)=O)CC1`, the melting point was in the range of 92 to 94 °C.

As to `COc1cc(OC)c2c(c1)OC(C(C)(C)C(N)=O)CC2=O` (stereo not drawn), the melting point was in the range of 161 to 163 °C.

`Cc1c(-c2ccccc2)[nH]c(=O)n1C1CCN(Cc2cccc3c2OCO3)CC1` came in with a melting point of 244 to 245 °C.

The compound `O=[N+]([O-])c1ccccc1/C=C/c1ccc(Cl)cc1[N+](=O)[O-]` returned a melting point of 158 to 159 °C.

Regarding `O=C1c2cc(O)ccc2CC1Cc1ccccc1` (stereo not drawn), the melting point lay in the range of 140 to 143 °C.

In turn, `Cc1cc2ccc(Cl)cc2[nH]1` came in with a melting point of 120 to 122 °C.

`CCOC(=O)C(O)(CC(=O)c1ccc(C)c(F)c1)C(=O)OCC` had a melting point of 68.7 to 69 °C.

The compound `O=C1CC(C(=O)O)(c2ccc(F)cc2)c2ccccc21` (stereo not drawn) displayed a melting point of 106 to 108 °C.

Compound `CCCc1ccc([C@H]2CC[C@H](O)CC2)cc1` registered a melting point of 78.2 to 80 °C.

Regarding `CCN(CC)C(=O)CO/N=C(\C(=O)O)c1csc(N)n1`, the melting point turned out to be 180 °C.

`Cc1cc2c(s1)N(C)c1ccccc1N=C2N1CCN(C)CC1` returned a melting point of 126 to 128 °C.

As to `Cc1c(NC(=O)CC(C)(C)C)cc2c(c1C)OC(C)(C)C2(O)CCc1ccccc1` (stereo not drawn), the melting point is 99 to 100 °C.

`CNC(=S)C1=CC(CF)(CF)Oc2ccc(C(F)(F)F)cc21` returned a melting point of 145 to 147 °C.

As for `CC(C(=O)O)c1ccc(CC2CCCC2=NO)cc1` (stereo not drawn), the melting point lay within 146 to 148 °C.

`Cc1c(F)cccc1Cc1c(-c2ccccc2)c2cc(O)cnn2c1C(=O)N1CCNCC1` came in with a melting point of 206 to 208 °C.

`CC(C)(C)c1ccc(/C=C/C(=O)Nc2ccc3c(c2)CCCC3)cc1` came in with a melting point of 198 to 199 °C.

In the case of `COc1ccc(C(CN(C)C(=O)/C=C/c2cccnc2)=NO)cc1OC`, the melting point is 172 to 173 °C.

In turn, `Cc1cc(C(C#N)=CN(C)C)cc(C)n1` showed a melting point of 149 °C.

In turn, `Cc1ccc(C2(O)c3c(C)c(NC(=O)CC(C)(C)C)c(C)c(C)c3OC2(C)C)cc1` (stereo not drawn) came in with a melting point of 146 to 148 °C.

With `OC1CSC(Oc2cc(-c3cccnc3)ccc2Cl)C(O)C1O` (stereo not drawn), the melting point was found to be 172 °C.

`O=[N+]([O-])c1c(NCCCO)cccc1NCCCO` came in with a melting point of 90 °C.

As for `CN1C(=O)CN=C(c2ccccc2F)c2c1ccc(NC(=O)NC(C)(C)C)c2Cl`, the melting point lay in the range of 206 to 208 °C.

For `CNc1nnc(-c2cc(C(C)(C)C)c(O)c(C(C)(C)C)c2)s1`, the melting point was 208 °C.

In turn, `CC(=O)c1c[nH]c(-c2ccc(O)cc2)n1` had a melting point of 254 to 259 °C.

Compound `CCOC(=O)CC(=O)c1cc2cc(F)c(F)cc2nc1Cl` returned a melting point of 107 °C.

Compound `CC(C)(CO)c1ccc(C(=O)Nc2cn3cc(-c4ccsc4)ccc3n2)cc1` had a melting point of 250 to 252 °C.

With `C/C(=C(\C#N)C(N)=S)N1CCC(C)CC1`, the melting point lay within 156 to 159 °C.

On to `COc1cc2c(cc1Nc1ncc(Cl)c(Nc3ccc(C(N)=O)cc3OC)n1)CCN(CC(=O)N(C)C)CC2`, for which the melting point is 113 to 131 °C.

In the case of `O=CN(O)C(CCc1ccc(C(=O)O)cc1)CS(=O)(=O)c1ccc(Oc2ccc(OC(F)(F)F)cc2)cc1` (stereo not drawn), the melting point lay in the range of 189 to 191 °C.

For `OC(CCl)CN1CCN(C(c2ccccc2)c2ccccc2)CC1` (stereo not drawn), the melting point lay within 114 to 116 °C.

On to `CCOc1cc(C)ccc1C1CCN(CCCCNC(=O)c2ccc(NC(=O)c3ccc(Cl)cc3)cc2)CC1`, for which the melting point was 254 °C.

Compound `Cc1cc(-c2cccc(C(F)(F)F)c2)c2nc(C(F)(F)F)cnc2c1` yielded a melting point of 117 to 118 °C.

Consider `CCC(CC)c1nn(-c2ncc(C(F)(F)F)cn2)cc1CCCOc1c(CC(=O)O)cccc1OC`, for which the melting point was in the range of 163 to 164 °C.

Take `CN1N=C2c3ccccc3CCC2C1c1ccncc1` (stereo not drawn): the melting point lay in the range of 195 to 198 °C.

In turn, `CS(=O)(=O)OCCCc1ccccc1OCc1coc(/C=C/c2ccccc2)n1` gave a melting point of 93 to 94 °C.

With `COc1cc(-c2cccc(Cl)c2)c2cc(C(O)(c3ccc(Cl)cc3)c3cncn3C)cc(NC(C)=O)c2n1` (stereo not drawn), the melting point turned out to be 143 °C.

Compound `CCCc1c(OCCCS(=O)(=O)c2ccc(CC(=O)O)cn2)ccc(C(C)=O)c1O` displayed a melting point of 154 to 156 °C.

`C[C@@H]1[C@H](NC(=O)C(=O)c2csc(N)n2)C(=O)N1S(=O)(=O)O`: the melting point was > 300 °C.

For `COc1ccc2c3c(cn2S(=O)(=O)c2c(C(C)C)cc(C(C)C)cc2C(C)C)C[C@H]2N(C)C(=O)CO[C@]2(C)c13` (relative stereo), the melting point was 155 to 157 °C.

With `Cc1cccc(C(=O)O)c1NC(=O)/C=C1\SCC(=O)N1C`, the melting point worked out at 187 °C.

As to `CCCc1nn(-c2ccc(C(F)(F)F)cn2)cc1CCCOc1cccc(CC(=O)O)c1F`, the melting point fell in the range of 109 to 110 °C.

With `O=C(Nc1ccc2ccc(Cl)nc2n1)c1ccc2c(c1)OCO2`, the melting point worked out at 256 °C.

On to `N#CC(c1ccc(C(F)(F)F)cc1)N1CCOCC1` (stereo not drawn), for which the melting point lay within 89 to 90 °C.

In turn, `O=C(O)Cn1cc(Br)cnc1=O` showed a melting point of 183 to 185 °C.

In the case of `Cc1c(C(=O)c2ccc(O)cc2)oc2ccc([N+](=O)[O-])cc12`, the melting point was 235 °C.

Turning to `CCCCCCCCCCCCOc1cccc2c(OCCCCCCCCCCCC)cccc12`, the melting point is 92 to 93 °C.

For `CCOC(=O)C(C)(Cc1cccnc1)S(=O)(=O)c1ccc(OC)cc1` (stereo not drawn), the melting point came out at 58 °C.

`NC(=O)C1CCc2[nH]c3cc(Cl)c(F)cc3c2C1` (stereo not drawn): the melting point was 245 to 246 °C.

As for `O=c1c2c(n(-c3ccccc3)c3ncccc13)OC(CI)C2` (stereo not drawn), the melting point was in the range of 178 to 180 °C.

Regarding `O=C(c1ccc(F)cc1)C1CCN(CCn2c(=O)[nH]c3ncccc3c2=O)CC1`, the melting point stood at 60 °C.

For `COC(=O)c1cccc(C(=O)N(C)C)n1`, the melting point fell in the range of 90 to 92 °C.

Usually melting point stands for the temperature, or range, at which the solid turns liquid.
